Tests used:
[1] = The drug is tested on Blautia luti strain: DSM14534 for biotransformation. The drug concentrations were measured before and after a 12-h incubation by liquid-chromatography-coupled mass spectrometry (LC–MS); format: ADME; set-up: dose 2 uM, timepoint 0 vs 12 hours; details: 2 µM
[2] = anaerostipes sp., 12 h, 2 µM
Description: The drug is tested on Anaerostipes sp. strain: fecal isolate for biotransformation. The drug concentrations were measured before and after a 12-h incubation by liquid-chromatography-coupled mass spectrometry (LC–MS)

[3] = The drug is tested on Parabacteroides merdae strain: ATCC43184 for biotransformation. The drug concentrations were measured before and after a 12-h incubation by liquid-chromatography-coupled mass spectrometry (LC–MS); details: 2 µM
[4] = The drug is tested on Bacteroides dorei strain: DSM17855 for biotransformation. The drug concentrations were measured before and after a 12-h incubation by liquid-chromatography-coupled mass spectrometry (LC–MS); details: phocaeicola dorei, 2 µM
[5] = The drug is tested on Clostridium scindens strain: ATCC35704 for biotransformation. The drug concentrations were measured before and after a 12-h incubation by liquid-chromatography-coupled mass spectrometry (LC–MS); details: 2 µM
[6] = The drug is tested on Eubacterium rectale strain: ATCC33656 for biotransformation. The drug concentrations were measured before and after a 12-h incubation by liquid-chromatography-coupled mass spectrometry (LC–MS); details: agathobacter rectalis, 2 µM
[7] = The drug is tested on Bacteroides uniformis strain: ATCC8492 for biotransformation. The drug concentrations were measured before and after a 12-h incubation by liquid-chromatography-coupled mass spectrometry (LC–MS); details: 2 µM
[8] = The drug is tested on Enterococcus faecalis strain: V583 for biotransformation. The drug concentrations were measured before and after a 12-h incubation by liquid-chromatography-coupled mass spectrometry (LC–MS); details: 2 µM
[9] = The drug is tested on Bifidobacterium longum subsp. Infantis strain: CCUG52486 for biotransformation. The drug concentrations were measured before and after a 12-h incubation by liquid-chromatography-coupled mass spectrometry (LC–MS); details: 2 µM
[10] = The drug is tested on Bacteroides cellulosilyticus strain: DSM14838 for biotransformation. The drug concentrations were measured before and after a 12-h incubation by liquid-chromatography-coupled mass spectrometry (LC–MS); details: 2 µM
[11] = bacteroides thetaiotaomicron, 12 h, 2 µM
Description: The drug is tested on Bacteroides thetaiotaomicron strain: VPI-5482 for biotransformation. The drug concentrations were measured before and after a 12-h incubation by liquid-chromatography-coupled mass spectrometry (LC–MS)

[12] = The drug is tested on Anaerotruncus colihominis strain: DSM17241 for biotransformation. The drug concentrations were measured before and after a 12-h incubation by liquid-chromatography-coupled mass spectrometry (LC–MS); details: 2 µM
[13] = The drug is tested on Collinsella intestinalis strain: DSM13280 for biotransformation. The drug concentrations were measured before and after a 12-h incubation by liquid-chromatography-coupled mass spectrometry (LC–MS); details: 2 µM
[14] = The drug is tested on Blautia hansenii strain: DSM20583 for biotransformation. The drug concentrations were measured before and after a 12-h incubation by liquid-chromatography-coupled mass spectrometry (LC–MS); details: 2 µM
[15] = The drug is tested on Bifidobacterium ruminantium strain: fecal isolate for biotransformation. The drug concentrations were measured before and after a 12-h incubation by liquid-chromatography-coupled mass spectrometry (LC–MS); details: 2 µM
[16] = The drug is tested on Collinsella aerofaciens strain: ATCC25986 for biotransformation. The drug concentrations were measured before and after a 12-h incubation by liquid-chromatography-coupled mass spectrometry (LC–MS); details: 2 µM
[17] = The drug is tested on Providencia stuartii strain: ATCC25827 for biotransformation. The drug concentrations were measured before and after a 12-h incubation by liquid-chromatography-coupled mass spectrometry (LC–MS); details: 2 µM
[18] = The drug is tested on Bifidobacterium breve strain: DSM20213 for biotransformation. The drug concentrations were measured before and after a 12-h incubation by liquid-chromatography-coupled mass spectrometry (LC–MS); details: 2 µM
[19] = The drug is tested on Bacteroides xylanisolvens strain: DSM18836 for biotransformation. The drug concentrations were measured before and after a 12-h incubation by liquid-chromatography-coupled mass spectrometry (LC–MS); details: 2 µM
[20] = The drug is tested on Bacteroides fragilis strain: HMW615 for biotransformation. The drug concentrations were measured before and after a 12-h incubation by liquid-chromatography-coupled mass spectrometry (LC–MS); details: 2 µM

Structure (SMILES)	Bacterial Biotransformation [1]	Bacterial Biotransformation [2]	Bacterial Biotransformation [3]	Bacterial Biotransformation [4]	Bacterial Biotransformation [5]	Bacterial Biotransformation [6]	Bacterial Biotransformation [7]	Bacterial Biotransformation [8]	Bacterial Biotransformation [9]	Bacterial Biotransformation [10]	Bacterial Biotransformation [11]	Bacterial Biotransformation [12]	Bacterial Biotransformation [13]	Bacterial Biotransformation [14]	Bacterial Biotransformation [15]	Bacterial Biotransformation [16]	Bacterial Biotransformation [17]	Bacterial Biotransformation [18]	Bacterial Biotransformation [19]	Bacterial Biotransformation [20]
Cc1nc(Nc2ncc(C(=O)Nc3c(C)cccc3Cl)s2)cc(N2CCN(CCO)CC2)n1.O [DASATINIB]	Compound NOT metabolized	Compound metabolized	Compound NOT metabolized	Compound metabolized	Compound metabolized	Compound NOT metabolized	Compound NOT metabolized	Compound NOT metabolized	Compound NOT metabolized	Compound NOT metabolized	Compound NOT metabolized	Compound metabolized	Compound NOT metabolized	Compound metabolized	Compound metabolized	Compound NOT metabolized	Compound NOT metabolized	Compound NOT metabolized	Compound NOT metabolized	–
COc1ccc([C@@H]2Sc3ccccc3N(CCN(C)C)C(=O)[C@@H]2OC(C)=O)cc1 [DILTIAZEM]	Compound NOT metabolized	Compound metabolized	Compound metabolized	Compound metabolized	Compound NOT metabolized	Compound NOT metabolized	Compound metabolized	Compound NOT metabolized	Compound metabolized	Compound metabolized	Compound metabolized	Compound NOT metabolized	Compound NOT metabolized	Compound metabolized	Compound NOT metabolized	Compound metabolized	–	Compound NOT metabolized	Compound metabolized	–
COc1cc2nc(N3CCN(C(=O)C4COc5ccccc5O4)CC3)nc(N)c2cc1OC.CS(=O)(=O)O (stereo not drawn) [DOXAZOSIN MESYLATE]	Compound NOT metabolized	–	Compound NOT metabolized	Compound metabolized	Compound NOT metabolized	–	Compound metabolized	Compound NOT metabolized	–	Compound NOT metabolized	Compound NOT metabolized	Compound NOT metabolized	Compound NOT metabolized	Compound metabolized	–	Compound NOT metabolized	Compound NOT metabolized	Compound NOT metabolized	–	Compound NOT metabolized
COC1=C(OC)C(=O)C(CCCCCCCCCCO)=C(C)C1=O [IDEBENONE]	Compound metabolized	Compound metabolized	Compound NOT metabolized	Compound NOT metabolized	Compound metabolized	Compound NOT metabolized	Compound metabolized	Compound NOT metabolized	Compound metabolized	Compound NOT metabolized	Compound NOT metabolized	Compound NOT metabolized	–	Compound NOT metabolized	Compound NOT metabolized	Compound NOT metabolized	Compound NOT metabolized	Compound NOT metabolized	Compound metabolized	–
Cc1ccc(NC(=O)c2ccc(CN3CCN(C)CC3)cc2)cc1Nc1nccc(-c2cccnc2)n1 [IMATINIB]	Compound NOT metabolized	Compound NOT metabolized	Compound NOT metabolized	Compound NOT metabolized	–	–	Compound NOT metabolized	Compound NOT metabolized	–	Compound NOT metabolized	Compound NOT metabolized	Compound NOT metabolized	Compound NOT metabolized	Compound NOT metabolized	Compound NOT metabolized	Compound NOT metabolized	Compound NOT metabolized	Compound NOT metabolized	Compound metabolized	–
COC(=O)Nc1nc2ccc(C(=O)c3ccccc3)cc2[nH]1 [MEBENDAZOLE]	–	Compound NOT metabolized	Compound NOT metabolized	Compound metabolized	Compound NOT metabolized	Compound NOT metabolized	Compound metabolized	Compound NOT metabolized	Compound NOT metabolized	Compound NOT metabolized	Compound metabolized	Compound NOT metabolized	Compound NOT metabolized	Compound metabolized	Compound metabolized	–	–	Compound NOT metabolized	Compound metabolized	–

Second part, led by results:

Bacterial Biotransformation [1]	Bacterial Biotransformation [2]	Bacterial Biotransformation [3]	Bacterial Biotransformation [4]	Bacterial Biotransformation [5]	Bacterial Biotransformation [6]	Bacterial Biotransformation [7]	Bacterial Biotransformation [8]	Bacterial Biotransformation [9]	Bacterial Biotransformation [10]	Bacterial Biotransformation [11]	Bacterial Biotransformation [12]	Bacterial Biotransformation [13]	Bacterial Biotransformation [14]	Bacterial Biotransformation [15]	Bacterial Biotransformation [16]	Bacterial Biotransformation [17]	Bacterial Biotransformation [18]	Bacterial Biotransformation [19]	Structure (SMILES)	Bacterial Biotransformation [20]
Compound NOT metabolized	Compound NOT metabolized	Compound NOT metabolized	Compound NOT metabolized	Compound NOT metabolized	–	Compound NOT metabolized	Compound NOT metabolized	Compound NOT metabolized	Compound NOT metabolized	Compound NOT metabolized	Compound NOT metabolized	Compound NOT metabolized	Compound metabolized	–	Compound NOT metabolized	Compound NOT metabolized	Compound NOT metabolized	–	Cc1ccccc1C(OCCN(C)C)c1ccccc1.O=C(O)CC(O)(CC(=O)O)C(=O)O (stereo not drawn) [ORPHENADRINE CITRATE]	Compound NOT metabolized
Compound metabolized	Compound NOT metabolized	Compound NOT metabolized	Compound metabolized	Compound metabolized	Compound metabolized	Compound metabolized	Compound NOT metabolized	Compound metabolized	Compound NOT metabolized	–	Compound NOT metabolized	Compound NOT metabolized	Compound NOT metabolized	Compound metabolized	Compound NOT metabolized	Compound metabolized	Compound NOT metabolized	–	NC(=O)N1c2ccccc2CC(=O)c2ccccc21 [OXCARBAZEPINE]	–
Compound metabolized	Compound NOT metabolized	Compound NOT metabolized	Compound metabolized	Compound NOT metabolized	–	Compound metabolized	Compound metabolized	–	Compound NOT metabolized	Compound NOT metabolized	Compound NOT metabolized	Compound NOT metabolized	Compound metabolized	Compound metabolized	Compound NOT metabolized	Compound NOT metabolized	Compound NOT metabolized	Compound metabolized	CCN(CC)CC#CCOC(=O)C(O)(c1ccccc1)C1CCCCC1.Cl (stereo not drawn) [OXYBUTYNIN CHLORIDE]	–

— ChEMBL document CHEMBL5303573, “Mapping human microbiome drug metabolism by gut bacteria and their genes” (Nature, 2019)
